{
  "source": "patent US20110306668A1",
  "about": "(NATIONAL TSING HUA UNIVERSITY, priority 2010, published 2011)",
  "type_in_all_cases": "cell-based",
  "key": {"[1]": {"tested_on": "C26 (solid murine colon carcinoma)", "assay": "Cytotoxicity by MTT assay, C26 cells", "settings": "Mus musculus, 48 h, incubation of 2 days, read-out: IC50 values, inhibition of growth of cells", "protocol": "(§1) The cell lines were used in the present invention, including C26 (solid murine colon carcinoma), A549 (Human type II epithelial cell line, from American Type Culture Collection, Manassas, Va.), MCF7 (solid human estrogen receptor positive breast carcinoma) and Tramp C1 (transgenic adenocarcinoma of the mouse prostate).\n(§2) 10 μL combinatorial compound was added into the well of microtiterplate planted with 100 μL of abovementioned cell lines in a concentration of 30000 cells/mL. After an incubation of 2 days, the supernatants were washed, followed by adding MTT reagents. After 4 hrs, absorbance at 580 nm was recorded according to the usual protocol."}, "[2]": {"tested_on": "A549 (Human type II epithelial cell line)", "assay": "Cytotoxicity by MTT assay, A549 cells", "settings": "48 h, incubation of 2 days, read-out: IC50 values, inhibition of growth of cells", "protocol": "as §1, §2"}, "[3]": {"tested_on": "Tramp C1 (transgenic adenocarcinoma of the mouse prostate)", "assay": "Cytotoxicity by MTT assay, TRAMP C-1 cells", "settings": "for IC50: Mus musculus, TRAMP-C1, 48 h, TRAMP C-1 cells, MTT, incubation of 2 days, read-out: IC50 values, inhibition of growth of cells", "protocol": "as §1, §2"}, "[4]": {"tested_on": "MCF7 (solid human estrogen receptor positive breast carcinoma)", "assay": "Cytotoxicity by MTT assay, MCF7 cells", "settings": "48 h, incubation of 2 days, read-out: IC50 values, inhibition of growth of cells", "protocol": "as §1, §2"}},
  "data": [
    {"molecule": "O=C(O)CCC(=O)c1ccc(-c2ccccc2)cc1", "note": "[Fenbufen, 4-(biphenyl-4-yl)-4-oxobutanoic acid, reference compound]", "values": [
      {"measurement": "IC50", "setting": "[1]", "result": "> 100", "unit": "µM"},
      {"measurement": "IC50", "setting": "[2]", "result": "> 100", "unit": "µM"},
      {"measurement": "IC50", "setting": "[3]", "result": "> 100", "unit": "µM"}
    ]},
    {"molecule": "C=C(CC)C(=O)c1ccc(OCC(=O)NCCCCNC(=O)CCC(=O)c2ccc(-c3ccccc3)cc2)c(Cl)c1Cl", "note": "[compound 14, 4-(biphenyl-4-yl)-N-(4-(2-(2,3-dichloro-4-(2-methylenebutanoyl)phenoxy)acetamido)butyl)-4-oxobutanamide]", "values": [
      {"measurement": "IC50", "setting": "[1]", "result": 35, "unit": "µM"},
      {"measurement": "IC50", "setting": "[4]", "result": 5, "unit": "µM"},
      {"measurement": "IC50", "setting": "[2]", "result": 19, "unit": "µM"},
      {"measurement": "IC50", "setting": "[3]", "result": "> 100", "unit": "µM"},
      {"measurement": "cytotoxicity against Tramp C-1 cell", "setting": "[3]; Tramp C-1 cell, result in words", "result": "void of cytotoxicity"}
    ]},
    {"molecule": "Cc1ccc(C)c(OCCCC(C)(C)C(=O)NCCCCNC(=O)CCC(=O)c2ccc(-c3ccccc3)cc2)c1", "note": "[compound 12, N-(4-(4-(biphenyl-4-yl)-4-oxobutanamido)butyl)-5-(2,5-dimethylphenoxy)-2,2-dimethylpentanamide]", "values": [
      {"measurement": "IC50", "setting": "[1]", "result": 15, "unit": "µM"},
      {"measurement": "IC50", "setting": "[4]", "result": 2, "unit": "µM"},
      {"measurement": "IC50", "setting": "[2]", "result": 9, "unit": "µM"},
      {"measurement": "IC50", "setting": "[3]", "result": 21, "unit": "µM"}
    ]},
    {"molecule": "CCCCC(CC)C(=O)NCCCCNC(=O)CCC(=O)c1ccc(-c2ccccc2)cc1", "note": "(stereo not shown) [compound 13, N-(4-(4-(biphenyl-4-yl)-4-oxobutanamido)butyl)-2-ethylhexanamide]", "values": [
      {"measurement": "IC50", "setting": "[1]", "result": 15, "unit": "µM"},
      {"measurement": "IC50", "setting": "[4]", "result": "< 1", "unit": "µM"},
      {"measurement": "IC50", "setting": "[2]", "result": 17, "unit": "µM"},
      {"measurement": "IC50", "setting": "[3]", "result": 18, "unit": "µM"}
    ]}
  ]
}
